# Values quoted from earlier work as cited in patent US8435963B2, “Weight loss compositions and uses thereof” (priority 2008, dated 2013).
# Structures can show the parent of a compound that is named as a salt. Where two headings read alike, the source gives them in different places.
SMILES,"half-life (human, in vivo) [h]",half-life (humans) [h]
COC(=O)[C@@H]1[C@H]2C[C@H]3c4[nH]c5cc(O)ccc5c4CCN3C[C@@H]2CC[C@@H]1O [11-Hydroxy yohimbine],8 to 11,
"COC(=O)[C@@H]1[C@H]2C[C@H]3c4[nH]c5ccccc5c4CCN3C[C@@H]2CC[C@@H]1O [yohimbine HCl, 17α-hydroxy-yohimban-16α-carboxylic acid methyl ester]",,2.5
